This note sets out measurements from a melting point compilation (Tetko et al.; mined from patent text by program, amines drawn as free bases though some values may be those of a salt).

Regarding `Clc1cc(Cl)c(Oc2nc(Oc3c(Cl)cc(Cl)c(Cl)c3Cl)nc(Oc3c(Cl)cc(Cl)c(Cl)c3Cl)n2)c(Cl)c1Cl`, the melting point lay within 165 to 168 °C.

`Nc1ccc(C(=O)N2CCCCc3sccc32)c(Cl)c1`: the melting point is 176 to 179 °C.

As for `COc1ccc(C2Sc3c(ccc4ccccc34)N(CCN(C)C)C(=O)C2OC(=O)c2cc(OC)c(OC)c(OC)c2)cc1` (stereo not given), the melting point lay within 189 to 190 °C.

The compound `CC(=O)Oc1cccc2c1CC(=O)N2C` showed a melting point of 109 to 111 °C.

Compound `N#CCCNC(=O)c1cccc(-c2ccc(F)c3cc(Cc4cccc(C(F)(F)F)c4)oc23)c1` returned a melting point of 158 to 159 °C.

As for `CN1C(=O)C2=C(c3ccc(Br)cc3)N(c3ccccc3)C(=O)C2=C1c1ccccc1`, the melting point was 255 to 256 °C.

Compound `CCOC(OCC)c1cccc2c1Sc1c(C=O)cccc1N2C` registered a melting point of 154 °C.

In turn, `CCCc1nc(I)c(CO)[nH]1` had a melting point of 169 to 170 °C.

Turning to `CCOC(=O)c1[nH]c2cc(F)c(Cl)cc2c1Sc1cc(C)cc(C)c1`, the melting point is 170 to 173 °C.

In turn, `CN(C)c1ccc2nc(-c3ccccc3)oc2n1` yielded a melting point of 127 to 129 °C.

`Cc1noc2cc3c(cc12)C1(CO3)C(=O)N(Cc2nc(C(=O)N(C)C)co2)c2ccccc21` (stereo not given): the melting point was 87 to 89 °C.

`CCOC(=O)C1=C(c2ccccc2)Nc2n[nH]cc2C1c1ccccc1OC` (stereo not given) returned a melting point of 195 °C.

In turn, `Cc1cccc(C=CC(=O)C=Cc2cccc(C)c2)c1` registered a melting point of 68 to 72 °C.

`COC(=O)CCC(=O)c1ccc(CCCCCCNC(C)=O)cc1` had a melting point of 87 to 89 °C.

With `CC(C)(C)c1ccc(CCC(CC2CCCCC2)OC(=O)OCC(=O)O)cc1NC(=O)CC1c2ccccc2Oc2ccccc21` (stereo not given), the melting point was in the range of 143 to 145 °C.

`CC(=O)ON(C(N)=O)C(C)c1cc2ccccc2s1` (stereo not given) returned a melting point of 138 °C.

`O=S(=O)(c1cnn(-c2c(Cl)cc(C(F)(F)F)cc2Cl)c1Br)C(F)(F)F` gave a melting point of 90 to 91 °C.

On to `COc1nc2ccccc2nc1NC(=O)N1CCN(c2ccccc2)CC1`, for which the melting point was in the range of 147 to 149 °C.

Consider `CCc1nsc(C(=O)NC(C)C)c1C(=O)OC`, for which the melting point lay in the range of 55 to 56 °C.

In turn, `CC(C)(C)c1cc(CC(O)=S)cc(C(C)(C)C)c1O` showed a melting point of 130 °C.

Take `Cc1ccc(S(=O)(=O)Oc2n[nH]c(CO)c2C(C)(C)C)cc1`: the melting point was 62 to 65 °C.

Regarding `CCN(CC)C(=O)c1ccc2cc(-c3csc(N(C)S(=O)(=O)c4ccccc4)n3)c(=O)[nH]c2c1`, the melting point was in the range of 200 to 202 °C.

For `O=C(O)CS(=O)(=O)c1cc(NS(=O)(=O)c2cccs2)c2ccccc2c1O`, the melting point fell in the range of 190 to 192 °C.

As to `O=C(O)c1cc(O)c(O)c([N+](=O)[O-])c1`, the melting point was 224 to 226 °C.

`Oc1ccc(-c2nc(-c3ccc(O)cc3O)nc(-c3cccn3Cc3ccccc3)n2)c(O)c1` came in with a melting point of over 275 °C.

`CCCCN(CCCC)c1ccc(C=C(S(C)(=O)=O)S(C)(=O)=O)cc1`: the melting point was 114 to 115 °C.

Take `COC(=O)CSCNC(=O)c1ccccc1`: the melting point was 65 to 68 °C.

`COc1ccc2c(c1)C(CCN1CC=C(c3ccccc3)CC1)C(C)N2C(C)=O` (stereo not given): the melting point was in the range of 113 to 115 °C.

The compound `NS(=O)(=O)c1cccc2c1c([N+](=O)[O-])cc1nc(O)c(O)nc12` registered a melting point of 360 °C.

Turning to `COc1cc(OC)c2c(=O)[nH]c(-c3cccc(N4CCN(CCO)CC4)n3)nc2c1`, the melting point is 175 to 177 °C.

As for `CC(C)(C)C(=O)OCOC(=O)c1cccnc1Nc1cccc(C(F)(F)F)c1`, the melting point was 55 to 56 °C.

In the case of `COc1ccc(-c2nc3cc(F)ccc3s2)cc1OC(=O)c1ccccc1`, the melting point came to 160 °C.

The compound `CCCCc1nc(SC)c[nH]1` displayed a melting point of 64 °C.

`NC(=O)NCCCCCC1CCSS1` (stereo not given) yielded a melting point of 74 to 78 °C.

In the case of `CC(C)=NOc1ccc([N+](=O)[O-])cc1`, the melting point lay within 104 to 106 °C.

`Oc1ccc2c(-c3nc4cc(O)ccc4o3)cccc2c1` showed a melting point of 232 to 234 °C.

Turning to `CCOC(=O)c1nc(/C=C/c2ccc([N+](=O)[O-])o2)no1`, the melting point is 138 to 139 °C.

In the case of `O=C(NC(=S)Nc1ccccc1-c1ccccc1F)c1ccccc1`, the melting point fell in the range of 110 to 111 °C.

Regarding `O=C1C(Cc2ccccc2)NC(=S)N1c1ccccc1` (stereo not given), the melting point was 187 to 189 °C.

With `CCCCNC(=O)N1C2=NC(C)(C)N(C)C(=O)N2c2ccccc21`, the melting point lay within 95 to 97 °C.

In the case of `CC(C)(C)OC(=O)CNC(=O)CC(C1CCCCC1)C1CCCCC1`, the melting point lay within 72 to 74 °C.

For the compound `Fc1ccc(-c2cnc3ccccc3n2)cc1`, the melting point came to 122 °C.

Regarding `CC(C)(C)c1cnc(C(=O)Nc2cc(-c3cc(NC4CCCNC4)c(=O)[nH]n3)ccc2F)cn1` (stereo not given), the melting point was 140 to 141 °C.

Consider `Clc1cc(-c2nnn[nH]2)nc(Cl)c1Cl`, for which the melting point fell in the range of 197 to 198 °C.

`O=C1CC(c2ccccc2)C(c2ccccc2)=NN1` (stereo not given) had a melting point of 221 to 223 °C.

Compound `Cc1cnnc2c1C(=O)CC(c1cc(Cl)ccc1F)C2` (stereo not given) had a melting point of 124 to 125 °C.

As for `Nc1c(Cl)cc(C(O)CNCCCCCCOCCCc2ccc([N+](=O)[O-])cn2)cc1Cl` (stereo not given), the melting point was 60 to 61 °C.

`CS/C=C(/C)n1c(=O)n(C)c2cc(F)ccc21`: the melting point was determined as 110 °C.

As for `CCC(=O)N(C(=O)CC)c1nnc2c3c(c(N4CCCCC4)nn12)CCCC3`, the melting point was 128 to 129 °C.

As to `O=C(O)/C=C\C(=O)NCC(=O)N1c2ccccc2N(Cc2ccccc2)C(=O)[C@H]2CCC[C@H]21` (relative stereo), the melting point lay within 207 to 209 °C.

`CC(=O)c1ncccc1C(O)=NNC(=O)Nc1cc(F)cc(F)c1` registered a melting point of 79 to 82 °C.

Turning to `COC(=O)c1ccc(NC(C)=O)c(CO)c1`, the melting point amounted to 60 °C.

Consider `Clc1ccc(Oc2c(-c3ccco3)sc3cnccc23)cc1`, for which the melting point is 75 to 77 °C.

The compound `CC(=NO)c1ccc(Cl)c(S(N)(=O)=O)c1` had a melting point of 157 to 158 °C.

Regarding `Cc1cccc(-n2nc(C)cc2-c2ccnc(S(C)(=O)=O)c2)c1`, the melting point lay in the range of 140 to 142 °C.

Compound `ClCSc1ncc(Cl)cn1` returned a melting point of 78 °C.

In the case of `CC(=Cc1ccccc1)c1ccc2c(c1)SC(C)(C)S2`, the melting point fell in the range of 57 to 58 °C.

For `COc1ccc(N2CCN(CCC3OCCc4cc([Si](C)(C)C)ccc43)CC2)cc1` (stereo not given), the melting point lay in the range of 78 to 80 °C.

In the case of `O=[N+]([O-])c1ccc2c(c1)S(=O)(=O)c1cc([N+](=O)[O-])ccc1-2`, the melting point fell in the range of 282 to 287 °C.

Consider `O=C(NCCO)/C(=C/c1ccc(C(F)(F)F)c(F)c1)NC(=O)c1ccc(OCCC(F)(F)F)cc1`, for which the melting point lay within 185 to 186 °C.

In turn, `CCc1cc(N)c(N)cc1CC` gave a melting point of 114 to 116 °C.

Regarding `O=[N+]([O-])c1ccc(NS(=O)(=O)c2cc(Cl)c(Cl)cc2Cl)c(Cl)c1`, the melting point lay within 177 to 179 °C.

With `CCc1cc(=O)c2c([nH]1)CCOC2`, the melting point was 238 to 240 °C.

In turn, `O=[N+]([O-])C=C1CN=C(c2ccccc2F)c2cc(I)ccc2N1` gave a melting point of 214 to 216 °C.

Turning to `Nc1nc(SCc2ccccc2)c2ncn(C3CC(F)C(CO)O3)c2n1` (stereo not given), the melting point lay in the range of 150 to 151 °C.

The compound `COc1cccc(-c2c(Cl)cccc2Cl)c1OC` yielded a melting point of 49 to 50 °C.

Consider `Cc1cc(C(=O)N2Cc3cccn3Cc3ccccc32)ccc1C1=CC(C)(C)CC(C)(C)C1`, for which the melting point is 118 to 120 °C.

In turn, `O=c1c2cccc(Cl)c2nc2n1CCCO2` displayed a melting point of 207 to 208 °C.

The compound `O=C(c1cccc(Br)c1)C(Br)C(Br)c1ccc(Br)cc1` (stereo not given) registered a melting point of 158 °C.

Consider `O=C(Nc1cc(Cl)cc(C(F)(F)F)c1)Oc1ccc([N+](=O)[O-])cc1`, for which the melting point fell in the range of 144 to 146 °C.

`CCCCCNC(=O)n1cc(F)c(N)nc1=O` registered a melting point of 289 to 292 °C.

The compound `CCOCc1nc2c(N)nc3ccccc3c2n1NC(C)C` showed a melting point of 162 to 164 °C.

For the compound `CCOc1ccc(CCc2ccc(OC(F)F)cc2)cc1`, the melting point was 37 °C.

`O=C(N[C@H]1CC[C@H](CCN2CCC(c3cccc4c3CCO4)CC2)CC1)c1ccc(-n2cccn2)cc1`: the melting point amounted to 258 °C.

On to `CN1Cc2c(C#CC(C)(C)OC(=O)C(C)(C)C)ncn2-c2cccc(Cl)c2C1=O`, for which the melting point was 132 to 133 °C.

In turn, `CC(C)c1cc(C(=O)Nc2ccc(C(=O)O)o2)oc1C(C)C` showed a melting point of 169 to 171 °C.

As for `CC(=O)OCc1c(Br)cccc1N1CCc2c(sc3c2CC(C)(C)C3)C1=O`, the melting point was 126 to 128 °C.

Consider `O=C(NCCO[N+](=O)[O-])c1csc(C(F)(F)F)n1`, for which the melting point lay within 81 to 82 °C.

Regarding `CCOC(=O)C(C#N)=CNc1nccc2c1CCCC2`, the melting point was 116 to 120 °C.

`CS(=O)(=O)c1ccc(-c2cc(C(CCCO[N+](=O)[O-])=NO)nn2-c2ccccc2)cc1` had a melting point of 128 to 130 °C.

Consider `Cc1c(CNCC(C)(C)C)[nH]c2c(C)c(NC(=O)c3ccc(OC[C@@H]4CCCO4)cc3)ccc12`, for which the melting point fell in the range of 178 to 179 °C.

Consider `Cc1nc(SCC(=O)c2cc(-c3ccc(C(F)(F)F)cc3)oc2C)sc1CC(=O)O`, for which the melting point was in the range of 140 to 143 °C.

Regarding `COCCOCCn1cc(C(=O)NCc2ccc(Cl)cc2)c(=O)c2cc(CN(C)CC#N)ccc21`, the melting point fell in the range of 118 to 120 °C.

The compound `Clc1cc2c(cc1Br)C(=C1CCNCC1)c1ncccc1CO2` yielded a melting point of 198 to 199 °C.

`Cc1c(-c2ccnc(C(F)(F)F)c2)sc2nc(N)[nH]c(=O)c12` gave a melting point of 335 to 355 °C.

For the compound `Cc1ccc2oc(OCC(=O)N(c3ccccc3)C(C)C)nc2c1`, the melting point stood at 108 °C.

As to `O=C1C=C(CCCCC#CCCCC#CCO)C(=O)c2ccccc21`, the melting point was in the range of 88 to 89.5 °C.

On to `CCc1c(S(=O)(=O)c2ccc(=O)[nH]n2)oc2ccc(Cl)cc12`, for which the melting point is 209 to 210 °C.

The compound `COc1cc(C#N)ccc1C(Br)C(Br)C(=O)c1ccc(C#N)cc1` (stereo not given) displayed a melting point of 163 to 165 °C.

`CCOC(=O)C1=C(C)NN=C(CC)C1c1ccccc1Cl` (stereo not given) returned a melting point of 112 °C.
